{
  "source": "ChEMBL document CHEMBL5653615",
  "about": "(J Biol Chem, 2013)",
  "key": {"[1]": {"molecular_target": "Casein kinase I isoform delta (Homo sapiens) (UniProt P48730)", "sequence (P48730 whole entry, looked up, canonical isoform)": "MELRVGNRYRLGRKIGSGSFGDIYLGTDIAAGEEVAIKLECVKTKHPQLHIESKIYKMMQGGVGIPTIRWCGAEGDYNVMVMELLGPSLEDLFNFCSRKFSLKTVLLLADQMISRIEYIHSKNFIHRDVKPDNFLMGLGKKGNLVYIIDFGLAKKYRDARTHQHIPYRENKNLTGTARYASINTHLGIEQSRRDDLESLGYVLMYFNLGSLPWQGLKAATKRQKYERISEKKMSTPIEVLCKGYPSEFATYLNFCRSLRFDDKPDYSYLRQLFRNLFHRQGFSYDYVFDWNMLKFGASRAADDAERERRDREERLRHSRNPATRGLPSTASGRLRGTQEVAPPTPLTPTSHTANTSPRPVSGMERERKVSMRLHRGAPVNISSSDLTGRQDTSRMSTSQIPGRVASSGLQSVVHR", "experiment": "Inhibition of human CK1d at 18.6 nM by HotSpot assay relative to control"}, "[2]": {"molecular_target": "MAP kinase-activated protein kinase 3 (Homo sapiens) (UniProt Q16644)", "sequence (Q16644 whole entry, looked up)": "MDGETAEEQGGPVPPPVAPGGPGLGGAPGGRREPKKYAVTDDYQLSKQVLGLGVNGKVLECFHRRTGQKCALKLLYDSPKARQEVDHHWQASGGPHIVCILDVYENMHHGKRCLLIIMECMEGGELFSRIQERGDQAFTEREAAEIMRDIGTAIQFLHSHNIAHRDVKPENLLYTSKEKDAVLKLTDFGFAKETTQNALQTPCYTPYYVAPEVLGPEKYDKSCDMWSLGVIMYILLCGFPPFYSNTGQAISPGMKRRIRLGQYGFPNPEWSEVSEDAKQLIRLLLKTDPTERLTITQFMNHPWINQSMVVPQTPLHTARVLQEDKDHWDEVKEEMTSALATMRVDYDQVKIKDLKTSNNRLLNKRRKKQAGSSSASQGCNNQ", "experiment": "Inhibition of human MAPKAPK3 at 18.6 nM by HotSpot assay relative to control"}, "[3]": {"molecular_target": "Serine/threonine-protein kinase PAK 6 (Homo sapiens) (UniProt Q9NQU5)", "sequence (Q9NQU5 whole entry, looked up)": "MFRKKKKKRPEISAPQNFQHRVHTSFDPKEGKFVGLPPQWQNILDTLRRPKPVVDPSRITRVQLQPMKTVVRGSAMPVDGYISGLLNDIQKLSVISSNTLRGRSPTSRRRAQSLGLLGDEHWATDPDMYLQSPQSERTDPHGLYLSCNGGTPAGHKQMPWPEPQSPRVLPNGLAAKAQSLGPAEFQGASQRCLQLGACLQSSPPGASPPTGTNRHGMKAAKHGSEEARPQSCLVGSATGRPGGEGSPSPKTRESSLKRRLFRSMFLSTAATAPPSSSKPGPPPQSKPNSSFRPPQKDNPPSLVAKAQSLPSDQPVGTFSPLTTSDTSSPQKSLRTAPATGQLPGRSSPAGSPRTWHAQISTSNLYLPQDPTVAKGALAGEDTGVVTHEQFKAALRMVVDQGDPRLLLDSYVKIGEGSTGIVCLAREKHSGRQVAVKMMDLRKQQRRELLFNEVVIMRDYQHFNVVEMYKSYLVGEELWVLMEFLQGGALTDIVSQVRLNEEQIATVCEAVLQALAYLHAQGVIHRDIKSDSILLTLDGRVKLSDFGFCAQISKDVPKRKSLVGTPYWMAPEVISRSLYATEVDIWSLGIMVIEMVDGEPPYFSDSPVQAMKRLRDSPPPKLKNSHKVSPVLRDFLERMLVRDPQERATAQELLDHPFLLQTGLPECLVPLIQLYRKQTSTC", "experiment": "Inhibition of human PAK6 at 18.6 nM by HotSpot assay relative to control"}, "[4]": {"molecular_target": "T1, TGF-beta receptor type-1 (Homo sapiens) (UniProt P36897)", "T1 sequence (whole entry)": "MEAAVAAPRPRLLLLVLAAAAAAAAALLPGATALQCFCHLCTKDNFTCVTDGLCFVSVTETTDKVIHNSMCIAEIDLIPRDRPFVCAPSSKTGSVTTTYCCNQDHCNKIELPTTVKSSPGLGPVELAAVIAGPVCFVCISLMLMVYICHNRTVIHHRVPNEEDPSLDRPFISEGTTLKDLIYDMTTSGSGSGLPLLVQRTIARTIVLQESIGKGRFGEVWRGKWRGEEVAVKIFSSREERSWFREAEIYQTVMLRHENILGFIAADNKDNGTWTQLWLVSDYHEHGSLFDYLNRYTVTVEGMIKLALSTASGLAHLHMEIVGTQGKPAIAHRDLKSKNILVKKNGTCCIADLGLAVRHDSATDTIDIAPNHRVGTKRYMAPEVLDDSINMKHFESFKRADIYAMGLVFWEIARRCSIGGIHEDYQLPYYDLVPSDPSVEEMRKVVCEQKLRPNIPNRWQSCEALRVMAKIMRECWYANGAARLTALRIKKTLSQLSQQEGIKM", "experiment": "Inhibition of human ALK5 at 1.82 nM by HotSpot assay relative to control"}, "[5]": {"molecular_target": "Tyrosine-protein kinase BTK (Homo sapiens) (UniProt Q06187)", "sequence (Q06187 whole entry)": "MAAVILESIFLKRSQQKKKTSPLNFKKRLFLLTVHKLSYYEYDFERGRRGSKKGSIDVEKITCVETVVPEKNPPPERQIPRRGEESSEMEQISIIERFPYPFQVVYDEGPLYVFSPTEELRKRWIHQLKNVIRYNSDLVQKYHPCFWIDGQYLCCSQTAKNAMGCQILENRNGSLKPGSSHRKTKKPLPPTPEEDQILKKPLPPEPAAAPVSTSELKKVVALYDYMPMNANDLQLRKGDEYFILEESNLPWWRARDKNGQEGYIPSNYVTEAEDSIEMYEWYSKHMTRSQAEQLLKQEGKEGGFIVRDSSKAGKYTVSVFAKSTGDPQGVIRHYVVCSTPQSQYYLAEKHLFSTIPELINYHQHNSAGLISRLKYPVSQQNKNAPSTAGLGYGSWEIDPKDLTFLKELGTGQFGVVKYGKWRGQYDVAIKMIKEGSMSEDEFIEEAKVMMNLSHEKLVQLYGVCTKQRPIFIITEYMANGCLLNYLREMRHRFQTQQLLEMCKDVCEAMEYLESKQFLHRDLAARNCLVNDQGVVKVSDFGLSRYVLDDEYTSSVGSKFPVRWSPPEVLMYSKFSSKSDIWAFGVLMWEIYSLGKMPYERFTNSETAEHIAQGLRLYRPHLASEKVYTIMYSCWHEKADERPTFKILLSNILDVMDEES", "experiment": "Inhibition of human BTK at 1.82 nM by HotSpot assay relative to control"}, "[6]": {"molecular_target": "T2, Calcium/calmodulin-dependent protein kinase type IV (Homo sapiens) (UniProt Q16566)", "T2 sequence (whole entry)": "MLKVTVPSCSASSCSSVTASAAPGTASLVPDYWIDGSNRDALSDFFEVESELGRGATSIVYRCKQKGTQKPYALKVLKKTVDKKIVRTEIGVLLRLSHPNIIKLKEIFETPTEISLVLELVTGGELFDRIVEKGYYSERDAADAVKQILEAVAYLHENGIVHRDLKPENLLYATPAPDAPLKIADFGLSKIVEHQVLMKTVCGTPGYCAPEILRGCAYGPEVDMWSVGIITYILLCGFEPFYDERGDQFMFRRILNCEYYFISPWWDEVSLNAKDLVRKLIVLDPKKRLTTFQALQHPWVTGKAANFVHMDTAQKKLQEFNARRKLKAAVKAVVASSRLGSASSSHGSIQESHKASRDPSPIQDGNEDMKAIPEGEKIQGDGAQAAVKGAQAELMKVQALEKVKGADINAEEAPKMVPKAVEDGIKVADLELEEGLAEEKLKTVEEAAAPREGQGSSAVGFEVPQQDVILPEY", "experiment": "Inhibition of human CAMK4 at 1.82 nM by HotSpot assay relative to control"}, "[7]": {"molecular_target": "Vascular endothelial growth factor receptor 2 (Homo sapiens) (UniProt P35968)", "sequence (P35968 whole entry)": "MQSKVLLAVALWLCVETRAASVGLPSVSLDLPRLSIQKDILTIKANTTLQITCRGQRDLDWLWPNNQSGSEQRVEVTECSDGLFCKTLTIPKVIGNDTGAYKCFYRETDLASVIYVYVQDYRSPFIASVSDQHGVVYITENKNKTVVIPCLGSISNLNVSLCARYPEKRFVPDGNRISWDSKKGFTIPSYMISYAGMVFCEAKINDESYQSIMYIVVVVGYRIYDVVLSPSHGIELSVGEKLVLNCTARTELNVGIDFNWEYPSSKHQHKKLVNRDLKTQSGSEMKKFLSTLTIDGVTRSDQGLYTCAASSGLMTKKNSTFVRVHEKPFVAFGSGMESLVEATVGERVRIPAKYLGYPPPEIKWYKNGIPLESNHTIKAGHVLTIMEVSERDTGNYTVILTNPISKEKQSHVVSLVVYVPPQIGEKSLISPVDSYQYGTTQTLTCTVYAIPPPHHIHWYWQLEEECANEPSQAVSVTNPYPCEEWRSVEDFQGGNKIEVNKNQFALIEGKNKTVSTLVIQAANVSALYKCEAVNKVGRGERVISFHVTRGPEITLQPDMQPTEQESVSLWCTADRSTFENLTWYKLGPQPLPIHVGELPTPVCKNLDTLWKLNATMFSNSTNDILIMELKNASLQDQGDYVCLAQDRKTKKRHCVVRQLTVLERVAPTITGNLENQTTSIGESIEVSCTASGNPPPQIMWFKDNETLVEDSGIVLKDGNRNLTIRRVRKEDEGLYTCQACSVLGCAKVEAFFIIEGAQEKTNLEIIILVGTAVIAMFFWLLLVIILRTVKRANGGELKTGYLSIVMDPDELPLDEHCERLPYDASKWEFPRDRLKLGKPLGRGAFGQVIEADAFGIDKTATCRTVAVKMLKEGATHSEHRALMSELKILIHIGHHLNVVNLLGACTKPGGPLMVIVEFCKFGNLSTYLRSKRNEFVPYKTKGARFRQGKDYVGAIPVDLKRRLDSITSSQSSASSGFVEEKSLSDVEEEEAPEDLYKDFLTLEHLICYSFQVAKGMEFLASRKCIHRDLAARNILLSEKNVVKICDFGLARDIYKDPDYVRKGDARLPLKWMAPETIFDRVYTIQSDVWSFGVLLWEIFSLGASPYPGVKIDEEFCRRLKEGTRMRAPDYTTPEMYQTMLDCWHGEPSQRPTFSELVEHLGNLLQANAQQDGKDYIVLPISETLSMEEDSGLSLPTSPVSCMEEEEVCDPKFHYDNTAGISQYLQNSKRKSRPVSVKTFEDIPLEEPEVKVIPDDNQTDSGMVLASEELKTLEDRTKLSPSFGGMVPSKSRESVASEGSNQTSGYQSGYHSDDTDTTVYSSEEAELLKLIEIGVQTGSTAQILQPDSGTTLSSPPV", "experiment": "Inhibition of human KDR at 1.82 nM by HotSpot assay relative to control"}, "[8]": {"molecular_target": "Mitogen-activated protein kinase kinase kinase kinase 5 (Homo sapiens) (UniProt Q9Y4K4)", "sequence (Q9Y4K4 whole entry, looked up)": "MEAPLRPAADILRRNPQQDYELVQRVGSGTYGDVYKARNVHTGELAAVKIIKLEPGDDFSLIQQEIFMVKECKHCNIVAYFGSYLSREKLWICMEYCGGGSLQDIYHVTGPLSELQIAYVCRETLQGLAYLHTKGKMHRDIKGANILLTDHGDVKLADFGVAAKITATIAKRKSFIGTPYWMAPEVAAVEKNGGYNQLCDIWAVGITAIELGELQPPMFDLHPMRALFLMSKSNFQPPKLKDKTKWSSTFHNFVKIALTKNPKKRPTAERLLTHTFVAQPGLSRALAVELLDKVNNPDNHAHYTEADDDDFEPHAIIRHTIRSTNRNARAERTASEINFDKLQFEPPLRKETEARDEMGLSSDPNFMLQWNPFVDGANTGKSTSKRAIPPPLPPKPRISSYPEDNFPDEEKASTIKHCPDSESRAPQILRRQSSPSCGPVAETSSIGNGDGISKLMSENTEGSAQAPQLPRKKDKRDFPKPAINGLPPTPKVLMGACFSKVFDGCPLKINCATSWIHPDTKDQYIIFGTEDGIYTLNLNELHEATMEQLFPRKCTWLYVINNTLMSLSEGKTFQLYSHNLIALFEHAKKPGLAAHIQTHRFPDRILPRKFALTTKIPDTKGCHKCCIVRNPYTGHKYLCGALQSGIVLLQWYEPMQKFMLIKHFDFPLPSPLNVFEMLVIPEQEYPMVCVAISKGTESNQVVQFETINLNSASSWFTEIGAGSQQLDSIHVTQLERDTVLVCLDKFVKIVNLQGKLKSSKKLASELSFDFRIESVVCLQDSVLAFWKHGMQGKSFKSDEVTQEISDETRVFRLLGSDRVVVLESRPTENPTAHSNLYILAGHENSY", "experiment": "Inhibition of human KHS at 1.82 nM by HotSpot assay relative to control"}, "[9]": {"molecular_target": "T3, Serine/threonine-protein kinase Nek11 (Homo sapiens) (UniProt Q8NG66)", "T3 sequence (whole entry)": "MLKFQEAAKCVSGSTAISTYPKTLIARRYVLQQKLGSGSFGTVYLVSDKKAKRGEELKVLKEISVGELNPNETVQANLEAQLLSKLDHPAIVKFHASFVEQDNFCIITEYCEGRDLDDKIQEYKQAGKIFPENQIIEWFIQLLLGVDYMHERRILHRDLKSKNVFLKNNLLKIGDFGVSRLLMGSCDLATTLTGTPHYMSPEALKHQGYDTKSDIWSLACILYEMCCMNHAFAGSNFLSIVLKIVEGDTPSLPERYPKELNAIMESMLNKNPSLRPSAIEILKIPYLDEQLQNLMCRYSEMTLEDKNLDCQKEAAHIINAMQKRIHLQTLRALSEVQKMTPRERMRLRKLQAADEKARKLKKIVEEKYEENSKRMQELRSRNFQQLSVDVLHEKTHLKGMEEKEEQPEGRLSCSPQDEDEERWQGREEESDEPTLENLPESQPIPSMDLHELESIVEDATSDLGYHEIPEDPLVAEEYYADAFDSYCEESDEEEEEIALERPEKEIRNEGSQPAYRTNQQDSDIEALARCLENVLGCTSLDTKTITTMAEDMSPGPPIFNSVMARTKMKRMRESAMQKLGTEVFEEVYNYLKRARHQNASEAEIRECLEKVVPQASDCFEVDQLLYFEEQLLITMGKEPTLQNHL", "experiment": "Inhibition of human NEK11 at 1.82 nM by HotSpot assay relative to control"}, "[10]": {"molecular_target": "Protein kinase C delta type (Homo sapiens) (UniProt Q05655)", "sequence (Q05655 whole entry, looked up)": "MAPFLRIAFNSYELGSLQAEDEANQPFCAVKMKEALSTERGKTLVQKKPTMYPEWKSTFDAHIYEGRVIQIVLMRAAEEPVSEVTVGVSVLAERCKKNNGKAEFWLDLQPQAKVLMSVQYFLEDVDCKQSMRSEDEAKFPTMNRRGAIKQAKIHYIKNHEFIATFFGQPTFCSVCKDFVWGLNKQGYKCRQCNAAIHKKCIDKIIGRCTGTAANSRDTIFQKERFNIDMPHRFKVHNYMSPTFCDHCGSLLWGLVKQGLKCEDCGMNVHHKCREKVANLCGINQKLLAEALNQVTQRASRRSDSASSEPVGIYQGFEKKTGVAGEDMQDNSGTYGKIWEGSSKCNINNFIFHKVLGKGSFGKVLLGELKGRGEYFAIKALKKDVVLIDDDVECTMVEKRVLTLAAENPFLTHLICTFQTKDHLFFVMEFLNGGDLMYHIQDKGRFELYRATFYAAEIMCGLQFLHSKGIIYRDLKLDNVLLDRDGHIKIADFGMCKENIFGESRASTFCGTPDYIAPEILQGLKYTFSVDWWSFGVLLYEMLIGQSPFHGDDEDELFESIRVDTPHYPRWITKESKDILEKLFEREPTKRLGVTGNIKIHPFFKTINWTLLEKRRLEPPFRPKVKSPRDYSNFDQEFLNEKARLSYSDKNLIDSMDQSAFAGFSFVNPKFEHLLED", "experiment": "Inhibition of human PKCd at 1.82 nM by HotSpot assay relative to control"}, "[11]": {"molecular_target": "T4, cGMP-dependent protein kinase 1 (Homo sapiens) (UniProt Q13976)", "T4 sequence (whole entry)": "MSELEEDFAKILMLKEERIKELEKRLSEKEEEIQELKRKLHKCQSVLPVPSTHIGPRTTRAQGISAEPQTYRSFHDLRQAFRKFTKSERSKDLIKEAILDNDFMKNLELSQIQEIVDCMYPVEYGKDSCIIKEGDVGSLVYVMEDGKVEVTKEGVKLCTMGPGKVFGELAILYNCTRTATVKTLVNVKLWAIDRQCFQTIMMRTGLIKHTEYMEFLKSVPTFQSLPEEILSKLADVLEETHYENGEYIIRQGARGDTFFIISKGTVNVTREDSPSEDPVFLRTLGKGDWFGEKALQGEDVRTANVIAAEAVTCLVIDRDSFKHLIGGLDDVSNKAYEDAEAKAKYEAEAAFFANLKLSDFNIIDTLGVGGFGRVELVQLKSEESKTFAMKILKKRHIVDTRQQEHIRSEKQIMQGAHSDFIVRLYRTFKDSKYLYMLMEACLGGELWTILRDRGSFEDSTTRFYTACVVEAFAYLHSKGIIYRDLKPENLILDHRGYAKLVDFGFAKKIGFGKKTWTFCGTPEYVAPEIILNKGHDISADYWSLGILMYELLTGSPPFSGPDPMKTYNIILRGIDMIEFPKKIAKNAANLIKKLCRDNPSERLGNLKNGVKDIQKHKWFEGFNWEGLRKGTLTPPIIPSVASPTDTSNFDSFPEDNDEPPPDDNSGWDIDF", "experiment": "Inhibition of human PKG1a at 1.82 nM by HotSpot assay relative to control"}},
  "data": [
    {"smiles": "C[C@]1(O)C[C@@H](c2nc(-c3ccc4ccc(-c5ccccc5)nc4c3)c3c(N)nccn32)C1", "values": [
      {"measurement": "inhibition", "setting": "[1]", "result": -2.47, "unit": "%"},
      {"measurement": "inhibition", "setting": "[2]", "result": 0.25, "unit": "%"},
      {"measurement": "inhibition", "setting": "[3]", "result": -8.39, "unit": "%"}
    ]},
    {"smiles": "C[C@@]1(C(=O)Nc2ccc(F)nc2)CCCN1c1nc(Nc2cc(C3CC3)n[nH]2)c2cccn2n1", "values": [
      {"measurement": "inhibition", "setting": "[4]", "result": -0.63, "unit": "%"},
      {"measurement": "inhibition", "setting": "[5]", "result": 4.42, "unit": "%"},
      {"measurement": "inhibition", "setting": "[6]", "result": 3.45, "unit": "%"},
      {"measurement": "inhibition", "setting": "[7]", "result": 3.67, "unit": "%"},
      {"measurement": "inhibition", "setting": "[8]", "result": -3.57, "unit": "%"},
      {"measurement": "inhibition", "setting": "[9]", "result": -5.31, "unit": "%"},
      {"measurement": "inhibition", "setting": "[10]", "result": -1.35, "unit": "%"},
      {"measurement": "inhibition", "setting": "[11]", "result": 5.76, "unit": "%"}
    ]}
  ]
}
